In US20130040882A1, “USE OF FIBROBLAST GROWTH FACTOR FRAGMENTS” (NOVARTIS AG, priority 2003, published 2013):

Tested on: luteinising hormone and follicle-stimulating hormone genes in the pituitary gland
Assay: Gene expression (HGU133A) in the pituitary gland of ovariectomized monkeys treated with estradiol, tamoxifen or raloxifene
Assay type: in vivo, cynomolgus monkeys (Macaca fascicularis)
Conditions: for Fold change relative to OVX: Follicle stimulating hormone / Fold change relative to OVX: Luteinising hormone / Fold expression change to SHAM control: Follicle stimulating hormone / Fold expression change to SHAM control: Luteinising hormone: pituitary gland
Experimental: Female sexually mature cynomolgus monkeys (Macaca fascicularis obtained from R. C. Hartelust B V, Tilburg, the Netherlands) approximately 48 months old were subjected to surgery (ovarectomy [OVX] or sham) 10 weeks prior to treatment and were treated for parasitic arthropods and helminthes, subjected to a tuberculin testing, and acclimated to the treatment facility for at least 14 days before beginning treatment.
Surgical Procedures. The ovariectomized cynomolgus monkey (Macaca fascicularis), which has been validated as a useful model predictive of outcomes in human clinical trials of estrogen and SERMs (Cline J M et al., Toxicol Pathol. 29:84-90 (2001)), was used as a model of estrogen deficiency. Animals were ovariectomized approximately 10 weeks before the first day of treatment. The ovaries were removed following anesthesia with a combined intramuscular injection of xylazine (Rompun®: 0.4 mL/animal, Bayer Pharma Division Sante Animale, Puteaux, France) and ketamine hydrochloride (Imalgéne®: 0.6 mL/kg, Mérial, Lyon, France). Sham-operated animals were subjected to the same surgical procedure, except for the removal of ovaries.
Ovariectomized and sham-operated animals were divided into groups of 4 and treated as outlined below.
Gene expression was determined in the pituitary and uterus at the end of drug therapy. Tissues to be analyzed (pituitary glands and uterus) were excised, snap frozen in liquid nitrogen, and stored at −80° C. until RNA extraction was performed.
Total RNA was obtained by acid guanidinium isothiocyanate-phenol-chloroform extraction (Trizol; Invitrogen Life Technologies, San Diego, Calif., USA) and purified on an affinity resin column (RNeasy; Qiagen, Hilden, Germany) according to manufacturer instructions. […] Lockhart D J, Dong H, Byrne M C, et al. Nat. Biotechnol. 1996; 14:1675-1680.
Previous studies have proven the validity of cross-species DNA chip analysis (Hacia J G et al. Nat Genet. 18:155-158 (1998)), therefore, the human gene expression probe arrays HGU133A (Affymetrix, Santa Clara, Calif., USA) containing 22,283 probe sets interrogating primarily annotated human genes were used. One GeneChip was used per tissue, per animal. The resulting image files (.dat files) were processed using the Microarray Analysis Suite 5 (MAS5) software (Affymetrix, Inc.). Tab-delimited files were obtained containing data regarding signal intensity (Signal) and categorical expression level measurement (Absolute Call).

## C#C[C@]1(O)CC[C@H]2[C@@H]3CCc4cc(O)ccc4[C@H]3CC[C@@]21C [EE]
  Fold change relative to OVX: Follicle stimulating hormone: <0.1 fold
  Fold change relative to OVX: Luteinising hormone: 0.1 fold
OVX monkeys
  Fold expression change to SHAM control: Follicle stimulating hormone: 0.1 fold
  Fold expression change to SHAM control: Luteinising hormone: 0.5 fold

## O=C(c1ccc(OCCN2CCCCC2)cc1)c1c(-c2ccc(O)cc2)sc2cc(O)ccc12 [raloxifene]
  Fold change relative to OVX: Follicle stimulating hormone: 0.8 fold
  Fold change relative to OVX: Luteinising hormone: 1.3 fold
OVX monkeys
  Fold expression change to SHAM control: Follicle stimulating hormone: 5.2 fold
  Fold expression change to SHAM control: Luteinising hormone: 9.8 fold

## CC/C(=C(\c1ccccc1)c1ccc(OCCN(C)C)cc1)c1ccccc1 [tamoxifen]
OVX monkeys
  Decrease of FSH transcripts in the pituitary gland: 2.7 fold
  Decrease of LH transcripts in the pituitary gland: 2.4 fold
  Fold expression change to SHAM control: Follicle stimulating hormone: 2.3 fold
  Fold expression change to SHAM control: Luteinising hormone: 3.2 fold
  Fold change relative to OVX: Follicle stimulating hormone: 0.4 fold
  Fold change relative to OVX: Luteinising hormone: 0.4 fold
